According to patent US8513289B2, “P38 kinase inhibiting agents” (Merck Sharp & Dohme Corp., priority 2009, dated 2013):

Key:
p38-α = target: T1, p38-α (Homo sapiens, UniProt Q16539); experiment: p38 kinase assay, p38-α with peptide substrate (Caliper LabChip); format: biochemical; conditions: read-out: IC50 p38a*peptide
T1 construct: purchased Millipore
Experimental: Alternatively, p38 kinase assays were performed in a reaction volume of 70 µL in a 384-well plate, at 30° for […] under the following conditions: 50 mM Hepes, pH 7.4, 10 mM MgCl2, 1 mg/ml FA Free BSA, 1 mM DTT, 10 μM ATP, 10 μM p38 peptide [Caliper Life Sciences FL-Peptide 8 (5-FAM-IPTSPITTTYFFEKKK-COOH)] and 5.7 nM p38-α (Millipore), or 14.3 nM unactivated MAPKAP kinase-2, 0.18 nM p38-α (Millipore) and 2 uM RSK peptide [Caliper Life Sciences FL-Peptide 11 (5-FAM-KKLNRTLSVA-COOH)]. Serial dilutions of compounds were added to each reaction in 700 nL DMSO. 700 nL of DMSO was added to the control wells of the reaction plate as the no inhibitor control for each inhibitor titration. The reaction was terminated by the addition of 15 μL of a 100 mM EDTA. Product formation was analyzed using the Caliper LabChip 3000. The Separation buffer contained 100 mM HEPES pH 7.5, 0.015% Brij-35, 2.5% Coating Reagent #3 (Caliper Life Sciences) and 10 mM EDTA. Calculation of the substrate product ratios are performed using the HTS Well Analyzer software provided by Caliper Life Sciences and the percent inhibition at each compound concentration is determined.

hWB = experiment: IC50 hWB (TNF-α release assay); format: cell-based; conditions: Homo sapiens

T1 sequence (Q16539 whole entry): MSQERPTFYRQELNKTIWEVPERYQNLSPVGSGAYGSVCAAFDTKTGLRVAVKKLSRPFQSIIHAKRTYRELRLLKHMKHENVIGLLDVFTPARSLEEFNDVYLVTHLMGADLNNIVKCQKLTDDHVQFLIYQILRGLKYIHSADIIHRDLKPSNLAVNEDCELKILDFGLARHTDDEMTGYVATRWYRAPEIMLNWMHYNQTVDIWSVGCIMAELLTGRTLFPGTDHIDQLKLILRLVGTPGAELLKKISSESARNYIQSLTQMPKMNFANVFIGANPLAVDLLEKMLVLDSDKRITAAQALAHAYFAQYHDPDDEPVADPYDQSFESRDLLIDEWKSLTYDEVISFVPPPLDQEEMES

SMILES	IC50 (p38-α)	IC50 (hWB)
O=C(NCc1nnc(-c2c(F)cccc2F)s1)c1cc(C(=O)c2c(F)cc(F)cc2F)c[nH]1 [Example 11, N-{[5-(2,6-difluorophenyl)-1,3,4-tbiadiazol-2-yl]methyl}-4-(2,4,6-trifluorobenzoyl)-1H-pyrrole-2-carboxamide]	276 nM	2850 nM
Cc1cc(-c2nnc(CNC(=O)c3cc(Cc4c(F)cc(F)cc4F)c[nH]3)s2)[nH]n1 [Example 46, N-{[5-(3-methyl-1H-pyrazol-5-yl)-1,3,4-thiadiazol-2-yl]methyl}-4-(2,4,6-trifluorobenzyl)-1H-pyrrole-2-carboxamide]	243 nM	3270 nM
O=C(NCc1nnc(C2CCCC2)s1)c1cc(C(=O)c2c(F)cc(F)cc2F)c[nH]1 [Example 6, N-[(5-cyclopentyl-1,3,4-thiadiazol-2-yl)methyl]-4-(2,4,6-trifluorobenzoyl)-1H-pyrrole-2-carboxamide]	1510 nM	2870 nM
Cc1nnc(CNC(=O)c2cc(C(=O)c3c(F)cc(F)cc3F)c[nH]2)s1 [Example 1, N-[(5-methyl-1,3,4-thiadiazol-2-yl)methyl]-4-(2,4,6-trifluorobenzoyl)-1-H-pyrrole-2-carboxamide]	167 nM	467 nM
CCCCc1nnc(CNC(=O)c2cc(C(=O)c3c(F)cc(F)cc3F)c[nH]2)s1 [Example 2, N-[(5-butyl-1,3,4-thiadiazol-2-yl)-methyl]-4-(2,4,6-trifluorobenzoyl)-1-H-pyrrole-2-carboxamide]	441 nM	4220 nM
O=C(NCc1nnc(-c2cnccn2)s1)c1cc(C(=O)c2c(F)cc(F)cc2F)c[nH]1 [Example 21, N-[(5-pyrazin-2-yl-1,3,4-thiadiazol-2-yl)methyl]-4-(2,4,6-trifluorobenzoyl)-1H-pyrrole-2-carboxamide]	78 nM	815 nM
O=C(NCc1nnc(-c2ccc[nH]c2=O)s1)c1cc(Cc2c(F)cc(F)cc2F)c[nH]1 [Example 43, N-{[5-(2-oxo-1,2-dihydropyridin-3-yl)-1,3,4-thiadiazol-2-yl]methyl}-4-(2,4,6-trifluorobenzyl)-1H-pyrrole-2-carboxamide]	259 nM	1880 nM
O=C(NCc1nnc(-c2cccc(F)c2)s1)c1cc(C(=O)c2c(F)cc(F)cc2F)c[nH]1 [Example 9, N {[5-(3-fluorophenyl)-1,3,4-thiadiazol-2-yl]methyl}-4-(2,4,6-trifluorobenzoyl)-1H-pyrrole-2-carboxamide]	462 nM	3490 nM
O=C(NCc1nnc(-c2ccc[nH]2)s1)c1cc(C(=O)c2c(F)cc(F)cc2F)c[nH]1 [Example 14, N-{[5-(1H-pyrrol-2-yl)-1,3,4-thiadiazol-2-yl]methyl}-4-(2,4,6-trifluorobenzoyl)-1H-pyrrole-2-carboxamide]	121 nM	1270 nM

The remaining compounds from weak to strong by IC50 (p38-α), led by results:

IC50 (p38-α)	IC50 (hWB)	SMILES
78 nM	2820 nM	COc1ccc(-c2nnc(CNC(=O)c3cc(C(=O)c4c(F)cc(F)cc4F)c[nH]3)s2)cn1 [Example 17, N-{[5-(6-methoxypyridin-3-yl)-1,3,4-thiadiazol-2-yl]methyl}-4-(2,4,6-trifluorobenzoyl)-1H-pyrrole-2-carboxamide]
69 nM	360 nM	O=C(NCc1nnc(-c2n[nH]c3ccccc23)s1)c1cc(C(=O)c2c(F)cc(F)cc2F)c[nH]1 [Example 28, N-{[5-(1H-indazol-3-yl)-1,3,4-thiadiazol-2-yl]methyl}-4-(2,4,6-trifluorobenzoyl)-1H-pyrrole-2-carboxamide]
66 nM	570 nM	O=C(NCc1nnc(-c2ccccn2)s1)c1cc(C(=O)c2c(F)cc(F)cc2F)c[nH]1 [Example 12, N-[(5-pyridin-2-yl-1,3,4-thiadiazol-2-yl)methyl]-4-(2,4,6-trifluorobenzoyl)-1H-pyrrole-2-carboxamide]
50 nM	1000 nM	O=C(NCc1nnc(-c2ccc(F)cc2)s1)c1cc(C(=O)c2c(F)cc(F)cc2F)c[nH]1 [Example 8, N-{[5-(4-fluorophenyl)-1,3,4-thiadiazol-2-yl]methyl}-4-(2,4,6-trifluorobenzoyl)-1H-pyrrole-2-carboxamide]
42 nM	4350 nM	O=C(NCc1nnc(-c2ccccc2)s1)c1cc(C(=O)c2c(F)cc(F)cc2F)c[nH]1 [Example 7, N-[(5-phenyl-1,3,4-thiadiazol-2-yl)methyl]-4-(2,4,6-trifluorobenzoyl)-1H-pyrrole-2-carboxamide]
40 nM	747 nM	O=C(NCc1nnc(-c2cccnc2)s1)c1cc(C(=O)c2c(F)cc(F)cc2F)c[nH]1 [Example 13, N-[(5-pyridin-3-yl-1,3,4-thiadiazol-2-yl)methyl]-4-(2,4,6-trifluorobenzoyl)-1H-pyrrole-2-carboxamide]
37.5 nM	168 nM	O=C(NCc1nnc(-c2ccc[nH]c2=O)s1)c1cc(C(=O)c2c(F)cc(F)cc2F)c[nH]1 [Example 35, N-{[5-(2-oxo-1,2-dihydropyridin-3-yl)-1,3,4-thiadiazol-2-yl]methyl}-4-(2,4,6-trifluorobenzoyl)-1H-pyrrole-2-carboxamide]
24 nM	163 nM	CC(C)Cc1cc(-c2nnc(CNC(=O)c3cc(C(=O)c4c(F)cc(F)cc4F)c[nH]3)s2)[nH]n1 [Example 26, N-{[5-(3-isobutyl-1H-pyrazol-5-yl)-1,3,4-thiadiazol-2-yl]methyl}-4-(2,4,6-trifluorobenzoyl)-1H-pyrrole-2-carboxamide]
22 nM	262 nM	Cc1cc(-c2nnc(CNC(=O)c3cc(C(=O)c4c(F)cc(F)cc4F)c[nH]3)s2)[nH]n1 [Example 20, N-{[5-(3-methyl-1H-pyrazol-5-yl)-1,3,4-thiadiazol-2-yl]methyl}-4-(2,4,6-trifluorobenzoyl)-1H-pyrrole-2-carboxamide]
10 nM	90 nM	CC(C)c1cc(-c2nnc(CNC(=O)c3cc(C(=O)c4c(F)cc(F)cc4F)c[nH]3)s2)[nH]n1 [Example 25, N-{[5-(3-isopropyl-1H-pyrazol-5-yl)-1,3,4-thiadiazol-2-yl]methyl}-4-(2,4,6-trifluorobenzoyl)-1H-pyrrole-2-carboxamide]
